“Also recorded” adds a separate entry of the source.
Tests used:
human adipocytes = test: Lipid accumulation in human adipocytes (Oil Red O staining); format: cell-based; conditions: G-1 during differentiation
Description: (§1) For human adipocytic differentiation, human preadipocytes were purchased from Zen-Bio and differentiated with or without GPER-selective agonist G-1. Mouse myoblasts, C2C12 were grown in low glucose DMEM with 10% FBS and subcultured before reaching 70-80% confluence. For differentiation into myocytes, cells were seeded on 12-well plates and at confluence were switched to DMEM containing 2% horse serum. The medium was changed every other day and cells were used for glucose uptake assay between 6-8 days post differentiation.
(§2) Eight days after differentiation, adipocytes are briefly rinsed with PBS and fixed in 4% PFA for 30-60 min and washed with PBS. Freshly prepared Oil Red-O working solution was added to cells and incubated for ˜60 min at room temperature, washed t 3 times with PBS and air dried. Images were acquired or lipids extracted with isopropanol and absorbance at 520 nm to quantitate the lipids measured.

[1] = system: AMP-activated protein kinase (AMPK); test: AMPK activation in differentiated murine adipocytes; format: cell-based, mouse
Description: (§3) Mouse fibroblasts, NIH 3T3-L1 cells were grown in DMEM with 10% FBS and subcultured before reaching 70% confluence. For differentiation, cells were seeded in 24 well plates or 60 mm dishes and allowed to grow till confluent. Subsequently medium was changed and cells were kept for additional two days before adding the differentiation cocktail in the medium (0.5 mM isomethylbutylxanthine, 1 μM dexamethasone and 10 μg/mL insulin) for 3 days (with or without GPER selective agonist G-1). The medium was then changed to the regular DMEM with FBS as above.
Tissues were homogenized in RIPA buffer supplemented with sodium fluoride (50 mM), sodium orthovanadate (1 mM), phenylmethylsulfonylfluoride (1 mM), and protease cocktail. Protein amounts were quantified by Bradford method and equal amounts (30 μg) of protein were loaded for all the samples on 4-20% SDS-PAGE gel. Proteins were then transferred to polyvinylidene fluoride membrane, blocked with 3% newborn calf serum in TBST before overnight incubation with primary antibodies. Subsequently, blots were incubated with secondary HRP-conjugated antibodies and developed using SuperSignal West Pico Chemiluminescent Substrate. Blots were then scanned and quantified using ImageJ software.

3T3-L1 cells = test: Lipid accumulation in 3T3-L1 adipocytes (Oil Red O staining); format: cell-based, mouse; conditions: 3T3-L1 murine adipocytes, G-1 during differentiation
Description: as §3, §2

[2] = system: differentiated murine adipocytes; test: Mitochondrial biogenesis in differentiated murine adipocytes; format: cell-based, mouse
Description: as §3

C2C12 cells = test: Glucose uptake in differentiated C2C12 myocytes; format: cell-based, mouse
Description: as §1
Differentiated C2C12 cells were washed twice with Krebs-Ringer phosphate buffer and incubated in serum free low glucose DMEM for 3 hours. Cells were then treated with 100 nM insulin for 15 min and subsequently incubated in Krebs-Ringer phosphate buffer containing […] of 2-deoxy-d-[^3H]glucose for 20 min. The reaction was terminated by adding ice-cold PBS on plates on ice. After three washes with PBS, the cells were dissolved in 0.1% sodium dodecyl sulfate and radioactivity was quantified by liquid scintillation counting. Nonspecific deoxyglucose uptake was measured in the presence of […] cytochalasin B and was subtracted from the total uptake to get specific glucose uptake.

[3] = system: ovariectomized female mice; test: Ovariectomized female mouse model of obesity and diabetes; format: in vivo; conditions: OVX females
Source text: (§4) For females, an ovariectomized female mouse model, with ovary-intact control animals, fed a regular chow diet, was employed. Loss of the ovaries results in the loss of endogenous estrogenic protection towards metabolic pathophysiology and weight gain, resulting in increased overall weight gain, abdominal adiposity and ensuing metabolic (including glucose and lipid) dysfunction in ovariectomized mice compared to ovary-intact control animals. For males, the model employed involves diet-induced obesity. In the absence of the estrogenic protection as in female mice, male mice fed a high fat chow gain weight and suffer from metabolic pathophysiology compared to mice on normal chow. […].
(§5) For measurement of food intake, activity and energy expenditure, mice were placed in metabolic cages. All measurements were obtained using a computer-controlled indirect calorimetry system. Prior to data collection, mice were acclimatized in the chambers for 24 hours, after which data was collected for the subsequent 48 hours, including two complete light cycles (14 h) and two complete dark cycles (10 h). Oxygen consumption (VO2), carbon dioxide production (VCO2), activity and food consumption were measured for 48 hours. The animals had ad libitum access to standard rodent chow or high fat chow and water during the study. To detect ambulatory activity and position, beam breaks in all the three planes, X, Y and Z directions, were utilized to obtain total activity. To calculate oxygen consumption (VO2) and carbon dioxide production (VCO2) were assessed by measuring the gas concentrations at the inlet and outlet of the sealed chambers.
(§6) Post euthanasia, tissues (epididymal/perirenal fat, liver) were dissected and weighed. Tibia length was measured after clearing of soft tissue. For H&E staining, at sacrifice, tissues were fixed in buffered formalin for 24 hours and subsequently embedded in paraffin. Tissue sections (5 μm-thick) were stained with Hematoxylin and Eosin.
(§7) Prior to GTT and ITT, mice were fasted for 4 hours and basal glucose (0 min) was measured. Subsequently, mice were intraperitoneally injected with glucose (2 g/kg body weight) or insulin (0.5 U/kg body weight). After the injection, blood glucose was monitored at regular time intervals (15, 30, 60 and 120 min after injection) from tail nicks. Additionally, for measuring the fasting insulin, blood was collected from the tail nicks at 0 time point and plasma was separated and used for measuring the fasting insulin using a mouse Insulin ELISA kit. Blood glucose was monitored using a glucose meter.
(§8) Total RNA was extracted from frozen tissues (˜100 mg) or cultured cells using the RNeasy Mini Kit. Isolated RNA (˜100 ng) was used for cDNA synthesis using the ImProm-II™ Reverse Transcription System in a final reaction volume of 20 μL in a denaturation and extension cycle. Subsequently, quantitative real time PCR was carried out in a 7500 Fast Real-Time PCR System. Gene expression was normalized to 18S RNA as an internal reference and fold change over the control was calculated using the ddCt method. Quantitative real-time PCR analyses were performed in triplicate from a minimum of 5 separate animals.

high fat diet male mice = test: Diet induced obesity (high fat diet) male mouse model; format: in vivo; conditions: HFD males
Source text: as §4, §5, §6, §7

PPARγ and ap2 = test: Expression of adipogenic markers in 3T3-L1 cells; format: cell-based, mouse; conditions: 3T3-L1 cells differentiated in the presence of G-1
Description: as §3, §8

In the case of `CC(=O)c1ccc2c(c1)C1C=CCC1C(c1cc3c(cc1Br)OCO3)N2` (centres unmarked) [G-1], the lipid accumulation (human adipocytes) is reported as “decreased lipid accumulation; also recorded: inhibits lipid accumulation”, the AMPK activation [1] is reported as “activated AMP-activated protein kinase (AMPK); also recorded: activates AMPK” and the lipid accumulation (3T3-L1 cells) is reported as “decreased lipid accumulation; also recorded: inhibits lipid accumulation”. For the same compound, the mitochondrial biogenesis [2] was “increased the mitochondrial biogenesis; also recorded: increases mitochondrial biogenesis”, the “cellular uptake of glucose” value (C2C12 cells) was “increased the cellular uptake of glucose; also recorded: increases glucose uptake” and the “adipocyte size in perigonadal fat (H&E staining)” value [3] was “smaller adipocytes”. For the same compound, the “antioxidant markers in muscle and liver” value [3] was “increases antioxidant markers”, the fasting glucose levels [3] was “lower fasting glucose levels; also recorded: decreases fasting blood glucose” and the “glucose tolerance (glucose tolerance test)” value [3] was “improves glucose tolerance”. For the same compound, the “insulin sensitivity (insulin tolerance test)” value [3] was “enhances insulin sensitivity”, the total body weight ([3]; G-1 200 μg, 3 days per week, subcutaneously for 6 weeks vs vehicle) was “attenuates weight gain; also recorded: decrease in the total body weight” and the “weights of perigonadal fat pads” value ([3]; after 6 week treatment) was “decreased weights of perigonadal fat pads; also recorded: lower”. The “mRNA levels of pro-inflammatory, angiogenic and lipogenic markers in adipose tissue” value ([3]; gonadal fat, quantitative PCR) was “lower; also recorded: reduces inflammatory, angiogenic and lipogenic markers”, the “energy expenditure (O2 consumption)” value ([3]; metabolic cages) was “increase in O2 consumption; also recorded: increased energy expenditure” and the “pro-inflammatory and lipogenic markers in skeletal muscle and liver” value ([3]; quantitative PCR) was “decreased pro-inflammatory and lipogenic markers; also recorded: reduces lipogenic and inflammation”. The fasting glucose levels (high fat diet male mice) was “lower fasting glucose levels; also recorded: decreases fasting blood glucose”, the “glucose tolerance (glucose tolerance test)” value (high fat diet male mice) was “improves glucose tolerance” and the “insulin sensitivity (insulin tolerance test)” value (high fat diet male mice) was “improved insulin sensitivity; also recorded: enhances insulin sensitivity”. The total body weight (high fat diet male mice; G-1 200 μg, 5 days per week, subcutaneously for 8 weeks vs vehicle) was “attenuates weight gain; also recorded: decrease in the total body weight”, the liver weights (high fat diet male mice; after 8 week treatment) was “significant decrease in liver weights; also recorded: lower” and the “perirenal adipose fat pad weights” value (high fat diet male mice; after 8 week treatment) was “significant decrease; also recorded: lower”. The “energy expenditure (O2 consumption)” value (high fat diet male mice; metabolic cages) was “increase in O2 consumption; also recorded: increased energy expenditure” and the “expression of adipogenic markers PPARγ and ap2” value (PPARγ and ap2) was “lower levels of adipogenic markers; also recorded: down regulates”.

Source: patent US10682341B2, “Method for treating obesity, diabetes, cardiovascular and kidney diseases by regulating GPR30/GPER activity” (STC.UNM, priority 2015, dated 2020)
